Our source for the MIC values is US20190345199A1, “LIPOLANTHIPEPTIDES AND THEIR USES AS ANTIMICROBIAL AGENTS” (DEINOVE, priority 2017, published 2019).

In brackets after ≈: the same amount, converted by molar mass. Where two headings read alike, the source gives them in different places.

What all share (format): cell-based
In experiment [1] the test system is Bacillus subtilis. Nature of the experiment: MIC, CLSI dilution antibacterial susceptibility test. The settings on record: Bacillus subtilis ATCC6633. The protocol: (§1) The measures of activities were conducted on compound NOC1 from Nocardia terpenica following the protocol recommended by the Clinical and Laboratory Standards Institute (CLSI)—Clinical and Laboratory Standards Institute (CLSI, formerly NCCLS): Methods for Dilution Antibacterial Susceptibility Tests for Bacteria That Grow Aerobically; Approved Standard—Tenth Edition (2015). Clinical and Laboratory Standards Institute Document M07-A10.

For experiment [2], the system named is Enterococcus faecalis. The description is as above. The protocol:
as §1

For experiment [3], the system named is Candida albicans. In words: MIC, extended antimicrobial activities (fungi). The settings on record: Candida albicans ATCC10231.
The subject of experiment [4] is Cryptococcus neoformans. In words: MIC, extended antimicrobial activities (fungi). The settings on record: Cryptococcus neoformans DSMZ6972.
Experiment [5] relates to Staphylococcus aureus. In words: MIC, CLSI dilution antibacterial susceptibility test. The settings on record: read-out: Minimal Inhibitory Concentration (MIC). The protocol:
as §1
(§2) The measures of activities were conducted on compounds A, B and C, following the protocol recommended by the Clinical and Laboratory Standards Institute (CLSI)—Clinical and Laboratory Standards Institute (CLSI, formerly NCCLS):
(§3) Methods for Dilution Antibacterial Susceptibility Tests for Bacteria That Grow Aerobically; Approved Standard—Tenth Edition (2015). Clinical and Laboratory Standards Institute Document M07-A10.

Experiment [6] has as its system Enterococcus faecium. Described as above. Here is the method: as §1, §2, §3
Experiment [7] relates to Candida krusei. In words: MIC, extended antimicrobial activities (fungi). The settings on record: Pichia kudriavzevii; Candida krusei DSMZ6128.
For experiment [8], the system named is Candida parapsilosis. In words: MIC, extended antimicrobial activities (fungi). The settings on record: Lodderomyces parapsilosis; Candida parapsilosis DSMZ5784. Here is the method: as §1
Experiment [9] deals with Candida tropicalis. Nature of the experiment: MIC, extended antimicrobial activities (fungi). The settings on record: Candida tropicalis DSMZ11953. Here is the method:
as §1

In experiment [10] the test system is Candida glabrata. In words: MIC, extended antimicrobial activities (fungi). The settings on record: Nakaseomyces glabratus; Candida glabrata DSMZ6425.

For `CCC(C)C1NC(=O)C(NC(=O)C(C)NC(=O)/C=C/C=C/CC/C=C/CCCCN/C(=N/C)NC)CC2(CS/C=C\NC(=O)CNC(=O)C(CC(N)=O)NC2=O)NC(=O)C(CO)NC1=O` (stereo not shown) [NOC1], the MIC in [1] came to 2 µg/mL (≈ 2.15 µM); in experiment [2] (Enterococcus faecalis ATCC29212, vancomycin sensitive) it was 160 µg/mL (≈ 172 µM); in experiment [2] (Enterococcus faecalis ATCC700802, vancomycin resistant (gene vanB)), 16 µg/mL (≈ 17.2 µM); in experiment [3], 3 µg/mL (≈ 3.22 µM); in experiment [4], 24 µg/mL (≈ 25.8 µM); in [5] (S. aureus ATTC 1683 (ATCC1683), methicillin resistant) it was 16 µg/mL (≈ 17.2 µM). Further, the MIC was 2 µg/mL (≈ 2.15 µM) in [5] (S. aureus ATTC 13709 (ATCC13709), fully susceptible / methicillin sensitive); 2 µg/mL (≈ 2.15 µM) in experiment [5] (S. aureus ATTC 25923 (ATCC25923), methicillin sensitive); 60 µg/mL (≈ 64.4 µM) in experiment [5] (S. aureus USA300, methicillin resistant); 8 µg/mL (≈ 8.59 µM) in [6] (Enterococcus faecium ATCC19434, vancomycin sensitive); 16 µg/mL (≈ 17.2 µM) in experiment [6] (Enterococcus faecium ATCC51559, vancomycin resistant (gene vanA)); 16 µg/mL (≈ 17.2 µM) in experiment [6] (Enterococcus faecium ATCC51858, vancomycin resistant (gene vanB)). In addition, the MIC in experiment [7] worked out at 12 µg/mL (≈ 12.9 µM); in experiment [8] it was 24 µg/mL (≈ 25.8 µM); in [9], 6 µg/mL (≈ 6.44 µM); in [10] it was 12 µg/mL (≈ 12.9 µM).
